Counter-ions that a name gives are not always drawn.
| SMILES | melting point |
| --- | --- |
| CCC/C(=N\O)c1ccc(-c2cc3ccccc3c(N3CCN(CC)CC3)n2)cc1 (as salt: oxalate) [Example 380, 1-(4-Ethylpiperazin-1-yl)-3-[4-(1-Hydroxyiminobutyl)Phenyl]Isoquinoline] | 179.5 to 180 °C |
| CCCN(C)C(=O)c1ccc(-c2cc3ccccc3c(N3CCN(CC)CC3)n2)cc1 (as salt: oxalate) [Example 381] | 131 to 132 °C |
| CCN1CCN(c2nc(-c3ccc(C(=O)N(C)CCO)cc3)cc3ccccc23)CC1 (as salt: oxalate) [Example 382, 1-(4-Ethylpiperazin-1-yl)-3-{4-[N-(2-Hydroxyethyl)-N-Methylcarbamoyl]Phenyl}Isoquinoline] | 116 to 118 °C |
| CCN1CCN(c2nc(-c3ccc(C(C)CCO)cc3)cc3ccccc23)CC1 (centres unmarked) (as salt: oxalate) [Example 383, 1-(4-Ethylpiperazin-1-yl)-3-[4-(3-Hydroxy-1-Methylpropyl)Phenyl]Isoquinoline Oxalate] | 106 to 108 °C |
| CCN1CCN(c2nc(-c3ccc(CC(C)CO)cc3)cc3ccccc23)CC1 (centres unmarked) (as salt: oxalate) [Example 386, 1-(4-Ethylpiperazin-1-yl)-3-[4-(3-Hydroxy-2-Methylpropyl)Phenyl]Isoquinoline Oxalate] | 195 to 196 °C |
| CCN1CCN(c2nc(-c3ccc(CC(C)(C)CO)cc3)cc3ccccc23)CC1 (as salt: oxalate) [Example 389, 1-(4-Ethylpiperazin-1-yl)-3-[4-(3-Hydroxy-2,2-Dimethylpropyl)Phenyl]Isoquinoline Oxalate] | 194 to 195 °C |
| CCN1CCN(c2nc(-c3ccc(C(C)(C)CCO)cc3)cc3ccccc23)CC1 (as salt: oxalate) [Example 390] | 134 to 135 °C |
| CCN1CCN(c2nc(C(O)c3cccnc3)cc3ccccc23)CC1 (centres unmarked) (as salt: oxalate) [Example 413, 1-(4-ethylpiperazin-1-yl)-3-[(3-pyridyl)hydroxymethyl]isoquinoline] | 174 to 175 °C |
| CCN1CCN(c2nc(-c3ccc4c(c3)CCC4O)cc3ccccc23)CC1 (centres unmarked) (as salt: oxalate) [Example 415, 1-(4-ethylpiperazin-1-yl)-3-(1-hydroxyindan-5-yl)isoquinoline] | 193 to 195 °C |
| CCN1CCN(c2nc(-c3ccc(C#CC(C)(C)O)cc3)cc3sccc23)CC1 (as salt: oxalate) [Example 466, 4-(4-ethylpiperazin-1-yl)-6-[4-(3-hydroxy-3-methyl-1-butynyl)phenyl]thieno[3,2-c]pyridine oxalate] | 124.5 to 125.5 °C |
| CCN1CCN(c2nc(-c3ccc([C@@H]4C[C@H](O)CCO4)cc3)cc3ccccc23)CC1 (relative stereo) (as salt: hydrochloride) [Example 401, 1-(4-Ethylpiperazin-1-yl)-3-[4-(cis-4-Hydroxytetrahydropyran-2-yl)Phenyl]Isoquinoline Dihydrochloride] | 148 to 149.5 °C |
| CCN1CCN(c2nc(-c3ccc([C@@H]4C[C@@H](O)CCO4)cc3)cc3ccccc23)CC1 (relative stereo) (as salt: hydrochloride) [Example 402, 1-(4-Ethylpiperazin-1-yl)-3-[4-(trans-4-Hydroxytetrahydropyran-2-yl)Phenyl]Isoquinoline Dihydrochloride] | 151 to 152.5 °C (dec.) |
| CCN1CCN(c2nc(-c3ccc([C@@H]4C[C@H](O)CCO4)cc3)cc3ccsc23)CC1 (relative stereo) (as salt: hydrochloride) [Example 454, 7-(4-Ethylpiperazin-1-yl)-5-[4-(cis-4-hydroxytetrahydropyran-2-yl)phenyl]thieno[2,3-c]pyridine dihydrochloride] | 157 to 159 °C |
| CCN1CCN(c2nc(-c3ccc([C@@H]4C[C@@H](O)CCO4)cc3)cc3ccsc23)CC1 (relative stereo) (as salt: hydrochloride) [Example 455, 7-(4-ethylpiperazin-1-yl)-5-[4-(trans-4-hydroxytetrahydropyran-2-yl)phenyl]thieno[2,3-c]pyridine dihydrochloride] | 146 to 148 °C |
